# In paper PMC9067983, “Identification of highly selective type II kinase inhibitors with chiral peptidomimetic tails” (Journal of Enzyme Inhibition and Medicinal Chemistry, 2022):
# Where a SMILES comes first, the peptide text is derived from it. [ ]: non-standard residue; d: D form. The star is where a group is joined. X1 = Cc1ccc(Nc2ncc3c(n2)N(C)C(=O)N(c2cc(C(=O)*)ccc2C)C3)cn1; Aib = CC(C)(N)C(=O)O
# Columns and labels:
# Assay in all cases: kinase selectivity profiling
# Assay type in all cases: biochemical
# Settings in all cases: 10µM ATP, read-out: % inhibition (relative to DMSO)
# CDK18/cyclin Y (PCTK3) = target: T1, CDK18/cyclin Y (PCTK3) (Homo sapiens, UniProt Q07002)
# T1 construct: purchased Reaction Biology Corp
# Procedure: (§1) Full panel kinase profiling and kinase IC50 measurement were performed by using Reaction Biology Corp. (San Diego, USA).
# ITK = target: T2, ITK (Homo sapiens, UniProt Q08881)
# T2 construct: purchased Reaction Biology Corp
# Procedure: as §1
# LKB1 = target: T3, LKB1 (Homo sapiens, UniProt Q15831)
# T3 construct: purchased Reaction Biology Corp
# Procedure: as §1
# RSK3 = target: T4, RSK3 (Homo sapiens, UniProt Q15349)
# T4 construct: purchased Reaction Biology Corp
# Procedure: as §1
# CLK2 = target: T5, CLK2 (Homo sapiens, UniProt P49760)
# T5 construct: purchased Reaction Biology Corp
# Procedure: as §1
# DYRK1/DYRK1A = target: T6, DYRK1/DYRK1A (Homo sapiens, UniProt Q13627)
# T6 construct: purchased Reaction Biology Corp
# Procedure: as §1
# PKCiota = target: T7, PKCiota (Homo sapiens, UniProt P41743)
# T7 construct: purchased Reaction Biology Corp
# Procedure: as §1
# ULK2 = target: T8, ULK2 (Homo sapiens, UniProt Q8IYT8)
# T8 construct: purchased Reaction Biology Corp
# Procedure: as §1
# c-Src = target: T9, c-Src (Homo sapiens, UniProt P12931)
# T9 construct: purchased Reaction Biology Corp
# Procedure: as §1
# CAMK2d = target: T10, CAMK2d (Homo sapiens, UniProt Q13557)
# T10 construct: purchased Reaction Biology Corp
# Procedure: as §1
# SGK2 = target: T11, SGK2 (Homo sapiens, UniProt Q9HBY8)
# T11 construct: purchased Reaction Biology Corp
# Procedure: as §1
# PYK2 = target: T12, PYK2 (Homo sapiens, UniProt Q14289)
# T12 construct: purchased Reaction Biology Corp
# Procedure: as §1
# p38a/MAPK14 = target: T13, p38a/MAPK14 (Homo sapiens, UniProt Q16539)
# T13 construct: purchased Reaction Biology Corp
# Procedure: as §1
# IR = target: T14, IR (Homo sapiens, UniProt P06213)
# T14 construct: purchased Reaction Biology Corp
# Procedure: as §1
# FES/FPS = target: T15, FES/FPS (Homo sapiens, UniProt P07332)
# T15 construct: purchased Reaction Biology Corp
# Procedure: as §1
# Lck = target: T16, Lck (Homo sapiens, UniProt P06239)
# T16 construct: purchased Reaction Biology Corp
# Procedure: as §1
# STK38L/NDR2 = target: T17, STK38L/NDR2 (Homo sapiens, UniProt Q9Y2H1)
# T17 construct: purchased Reaction Biology Corp
# Procedure: as §1
# AXL = target: T18, AXL (Homo sapiens, UniProt P30530)
# T18 construct: purchased Reaction Biology Corp
# Procedure: as §1
# SIK1 = target: T19, SIK1 (Homo sapiens, UniProt P57059)
# T19 construct: purchased Reaction Biology Corp
# Procedure: as §1
# TAOK1 = target: T20, TAOK1 (Homo sapiens, UniProt Q7L7X3)
# T20 construct: purchased Reaction Biology Corp
# Procedure: as §1
# ULK1 = target: T21, ULK1 (Homo sapiens, UniProt O75385)
# T21 construct: purchased Reaction Biology Corp
# Procedure: as §1
# HIPK3 = target: T22, HIPK3 (Homo sapiens, UniProt Q9H422)
# T22 construct: purchased Reaction Biology Corp
# Procedure: as §1
# c-MET = target: T23, c-MET (Homo sapiens, UniProt P08581)
# T23 construct: purchased Reaction Biology Corp
# Procedure: as §1
# PDK1/PDPK1 = target: T24, PDK1/PDPK1 (Homo sapiens, UniProt O15530)
# T24 construct: purchased Reaction Biology Corp
# Procedure: as §1
# WNK1 = target: T25, WNK1 (Homo sapiens, UniProt Q9H4A3)
# T25 construct: purchased Reaction Biology Corp
# Procedure: as §1
# TLK1 = target: T26, TLK1 (Homo sapiens, UniProt Q9UKI8)
# T26 construct: purchased Reaction Biology Corp
# Procedure: as §1
# SYK = target: T27, SYK (Homo sapiens, UniProt P43405)
# T27 construct: purchased Reaction Biology Corp
# Procedure: as §1
# MLK4 = target: T28, MLK4 (Homo sapiens, UniProt Q5TCX8)
# T28 construct: purchased Reaction Biology Corp
# Procedure: as §1
# TRKA = target: T29, TRKA (Homo sapiens, UniProt P04629)
# T29 construct: purchased Reaction Biology Corp
# Procedure: as §1
# p38b/MAPK11 = target: T30, p38b/MAPK11 (Homo sapiens, UniProt Q15759)
# T30 construct: purchased Reaction Biology Corp
# Procedure: as §1
# NEK4 = target: T31, NEK4 (Homo sapiens, UniProt P51957)
# T31 construct: purchased Reaction Biology Corp
# Procedure: as §1
# CTK/MATK = target: T32, CTK/MATK (Homo sapiens, UniProt P42679)
# T32 construct: purchased Reaction Biology Corp
# Procedure: as §1
# PHKg1 = target: T33, PHKg1 (Homo sapiens, UniProt Q16816)
# T33 construct: purchased Reaction Biology Corp
# Procedure: as §1
# HIPK2 = target: T34, HIPK2 (Homo sapiens, UniProt Q9H2X6)
# T34 construct: purchased Reaction Biology Corp
# Procedure: as §1
# EPHA1 = target: T35, EPHA1 (Homo sapiens, UniProt P21709)
# T35 construct: purchased Reaction Biology Corp
# Procedure: as §1
# PLK1 = target: T36, PLK1 (Homo sapiens, UniProt P53350)
# T36 construct: purchased Reaction Biology Corp
# Procedure: as §1
# CDK17/cyclin Y (PCTK2) = target: T37, CDK17/cyclin Y (PCTK2) (Homo sapiens, UniProt Q00537)
# T37 construct: purchased Reaction Biology Corp
# Procedure: as §1
# DMPK = target: T38, DMPK (Homo sapiens, UniProt Q09013)
# T38 construct: purchased Reaction Biology Corp
# Procedure: as §1
# MNK1 = target: T39, MNK1 (Homo sapiens, UniProt Q9BUB5)
# T39 construct: purchased Reaction Biology Corp
# Procedure: as §1
# TTBK1 = target: T40, TTBK1 (Homo sapiens, UniProt Q5TCY1)
# T40 construct: purchased Reaction Biology Corp
# Procedure: as §1
# STK22D/TSSK1 = target: T41, STK22D/TSSK1 (Homo sapiens, UniProt Q9BXA7)
# T41 construct: purchased Reaction Biology Corp
# Procedure: as §1
# IKKe/IKBKE = target: T42, IKKe/IKBKE (Homo sapiens, UniProt Q14164)
# T42 construct: purchased Reaction Biology Corp
# Procedure: as §1
# HPK1/MAP4K1 = target: T43, HPK1/MAP4K1 (Homo sapiens, UniProt Q92918)
# T43 construct: purchased Reaction Biology Corp
# Procedure: as §1
# T5 sequence (P49760 whole entry): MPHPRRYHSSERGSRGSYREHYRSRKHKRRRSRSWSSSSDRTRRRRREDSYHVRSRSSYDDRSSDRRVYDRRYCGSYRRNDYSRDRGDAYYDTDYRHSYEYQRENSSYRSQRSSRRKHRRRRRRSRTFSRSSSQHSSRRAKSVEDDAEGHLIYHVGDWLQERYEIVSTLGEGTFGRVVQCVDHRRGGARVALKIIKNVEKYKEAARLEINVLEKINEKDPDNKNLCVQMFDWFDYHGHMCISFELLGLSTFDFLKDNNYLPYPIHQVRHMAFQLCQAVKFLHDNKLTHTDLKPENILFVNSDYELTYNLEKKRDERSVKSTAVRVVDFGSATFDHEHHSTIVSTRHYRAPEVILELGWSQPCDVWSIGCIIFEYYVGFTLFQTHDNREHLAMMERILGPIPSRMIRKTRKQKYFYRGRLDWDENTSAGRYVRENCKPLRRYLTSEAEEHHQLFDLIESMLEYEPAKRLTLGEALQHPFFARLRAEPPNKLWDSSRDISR
# T32 sequence (P42679 whole entry): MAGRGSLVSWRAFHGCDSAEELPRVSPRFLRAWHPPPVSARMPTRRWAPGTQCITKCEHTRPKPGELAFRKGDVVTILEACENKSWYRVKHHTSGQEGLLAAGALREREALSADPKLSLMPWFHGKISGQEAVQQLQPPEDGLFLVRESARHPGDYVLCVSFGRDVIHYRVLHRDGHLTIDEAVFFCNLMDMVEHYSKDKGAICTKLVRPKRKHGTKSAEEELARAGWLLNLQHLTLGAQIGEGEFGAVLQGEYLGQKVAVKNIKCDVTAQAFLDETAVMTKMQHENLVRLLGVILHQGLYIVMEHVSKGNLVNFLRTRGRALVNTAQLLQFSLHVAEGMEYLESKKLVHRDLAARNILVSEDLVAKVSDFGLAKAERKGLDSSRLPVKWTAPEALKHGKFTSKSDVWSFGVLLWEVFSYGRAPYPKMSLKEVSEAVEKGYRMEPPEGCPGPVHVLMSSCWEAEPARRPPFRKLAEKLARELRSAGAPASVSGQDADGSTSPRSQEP
# T9 sequence (P12931 whole entry): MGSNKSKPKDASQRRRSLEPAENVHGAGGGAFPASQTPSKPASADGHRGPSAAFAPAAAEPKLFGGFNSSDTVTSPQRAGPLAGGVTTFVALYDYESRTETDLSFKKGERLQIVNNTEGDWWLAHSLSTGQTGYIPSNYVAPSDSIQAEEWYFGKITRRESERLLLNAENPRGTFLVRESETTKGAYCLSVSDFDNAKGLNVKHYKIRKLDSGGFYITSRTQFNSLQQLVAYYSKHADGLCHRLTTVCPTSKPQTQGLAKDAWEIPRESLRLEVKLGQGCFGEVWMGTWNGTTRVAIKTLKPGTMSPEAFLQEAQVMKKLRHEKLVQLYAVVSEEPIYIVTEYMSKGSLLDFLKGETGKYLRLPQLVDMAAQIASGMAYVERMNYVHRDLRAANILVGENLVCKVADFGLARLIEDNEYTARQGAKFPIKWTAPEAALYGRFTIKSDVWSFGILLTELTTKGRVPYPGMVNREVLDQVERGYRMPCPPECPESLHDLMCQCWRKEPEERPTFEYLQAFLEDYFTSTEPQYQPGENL
# T41 sequence (Q9BXA7 whole entry): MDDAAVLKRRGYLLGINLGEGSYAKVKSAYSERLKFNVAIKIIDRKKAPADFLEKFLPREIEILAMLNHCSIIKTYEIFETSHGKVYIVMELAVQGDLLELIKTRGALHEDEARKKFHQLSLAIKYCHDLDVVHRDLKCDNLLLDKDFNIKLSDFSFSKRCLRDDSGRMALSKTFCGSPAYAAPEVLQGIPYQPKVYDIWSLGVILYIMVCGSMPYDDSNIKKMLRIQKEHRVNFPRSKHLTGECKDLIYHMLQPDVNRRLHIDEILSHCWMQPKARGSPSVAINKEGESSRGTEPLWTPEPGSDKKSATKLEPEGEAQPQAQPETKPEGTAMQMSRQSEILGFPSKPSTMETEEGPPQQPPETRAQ
# T24 sequence (O15530 whole entry): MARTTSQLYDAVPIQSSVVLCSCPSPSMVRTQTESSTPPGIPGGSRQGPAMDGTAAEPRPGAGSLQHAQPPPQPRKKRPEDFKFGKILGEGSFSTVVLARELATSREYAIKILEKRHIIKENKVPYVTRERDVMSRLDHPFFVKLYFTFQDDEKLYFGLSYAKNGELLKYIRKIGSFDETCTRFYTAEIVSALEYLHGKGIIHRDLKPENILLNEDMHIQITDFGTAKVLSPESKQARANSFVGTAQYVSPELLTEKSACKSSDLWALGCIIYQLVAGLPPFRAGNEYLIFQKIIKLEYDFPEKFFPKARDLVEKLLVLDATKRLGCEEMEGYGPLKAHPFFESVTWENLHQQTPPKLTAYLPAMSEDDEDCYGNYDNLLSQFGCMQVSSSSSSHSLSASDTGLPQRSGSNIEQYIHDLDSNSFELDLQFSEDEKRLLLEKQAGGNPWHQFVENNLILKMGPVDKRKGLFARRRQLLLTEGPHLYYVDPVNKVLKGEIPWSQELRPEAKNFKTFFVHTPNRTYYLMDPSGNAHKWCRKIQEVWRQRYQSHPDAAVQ
# T30 sequence (Q15759 whole entry): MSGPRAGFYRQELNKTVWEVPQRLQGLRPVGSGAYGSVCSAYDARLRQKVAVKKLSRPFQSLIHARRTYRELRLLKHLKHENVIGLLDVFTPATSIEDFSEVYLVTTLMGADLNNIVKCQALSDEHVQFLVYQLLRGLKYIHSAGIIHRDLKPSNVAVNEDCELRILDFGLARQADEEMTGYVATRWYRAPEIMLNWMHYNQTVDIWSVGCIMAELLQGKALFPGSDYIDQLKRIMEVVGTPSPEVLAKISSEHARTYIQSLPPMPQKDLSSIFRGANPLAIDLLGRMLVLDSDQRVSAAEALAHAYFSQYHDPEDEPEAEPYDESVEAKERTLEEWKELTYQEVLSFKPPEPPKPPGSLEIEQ
# T15 sequence (P07332 whole entry): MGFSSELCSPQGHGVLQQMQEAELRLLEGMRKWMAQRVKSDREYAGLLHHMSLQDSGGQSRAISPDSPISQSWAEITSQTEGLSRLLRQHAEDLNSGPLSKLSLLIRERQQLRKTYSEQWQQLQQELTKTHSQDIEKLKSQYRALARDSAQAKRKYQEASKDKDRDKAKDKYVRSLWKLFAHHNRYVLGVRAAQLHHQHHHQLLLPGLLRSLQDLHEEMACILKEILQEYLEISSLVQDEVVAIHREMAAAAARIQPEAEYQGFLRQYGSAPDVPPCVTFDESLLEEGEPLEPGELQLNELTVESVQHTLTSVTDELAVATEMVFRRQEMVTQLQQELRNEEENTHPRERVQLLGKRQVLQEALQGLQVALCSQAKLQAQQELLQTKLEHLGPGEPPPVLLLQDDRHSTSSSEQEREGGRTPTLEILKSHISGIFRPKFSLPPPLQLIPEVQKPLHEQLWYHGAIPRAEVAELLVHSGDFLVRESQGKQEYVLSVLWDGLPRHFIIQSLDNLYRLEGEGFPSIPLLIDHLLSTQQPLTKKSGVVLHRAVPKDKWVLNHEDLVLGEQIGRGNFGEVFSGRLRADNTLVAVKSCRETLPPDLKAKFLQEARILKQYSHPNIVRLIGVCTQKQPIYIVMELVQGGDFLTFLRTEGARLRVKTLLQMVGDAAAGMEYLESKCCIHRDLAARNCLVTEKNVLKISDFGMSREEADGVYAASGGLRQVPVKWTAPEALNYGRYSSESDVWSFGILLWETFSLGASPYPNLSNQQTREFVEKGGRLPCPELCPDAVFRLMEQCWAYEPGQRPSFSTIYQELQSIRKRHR
# T21 sequence (O75385 whole entry): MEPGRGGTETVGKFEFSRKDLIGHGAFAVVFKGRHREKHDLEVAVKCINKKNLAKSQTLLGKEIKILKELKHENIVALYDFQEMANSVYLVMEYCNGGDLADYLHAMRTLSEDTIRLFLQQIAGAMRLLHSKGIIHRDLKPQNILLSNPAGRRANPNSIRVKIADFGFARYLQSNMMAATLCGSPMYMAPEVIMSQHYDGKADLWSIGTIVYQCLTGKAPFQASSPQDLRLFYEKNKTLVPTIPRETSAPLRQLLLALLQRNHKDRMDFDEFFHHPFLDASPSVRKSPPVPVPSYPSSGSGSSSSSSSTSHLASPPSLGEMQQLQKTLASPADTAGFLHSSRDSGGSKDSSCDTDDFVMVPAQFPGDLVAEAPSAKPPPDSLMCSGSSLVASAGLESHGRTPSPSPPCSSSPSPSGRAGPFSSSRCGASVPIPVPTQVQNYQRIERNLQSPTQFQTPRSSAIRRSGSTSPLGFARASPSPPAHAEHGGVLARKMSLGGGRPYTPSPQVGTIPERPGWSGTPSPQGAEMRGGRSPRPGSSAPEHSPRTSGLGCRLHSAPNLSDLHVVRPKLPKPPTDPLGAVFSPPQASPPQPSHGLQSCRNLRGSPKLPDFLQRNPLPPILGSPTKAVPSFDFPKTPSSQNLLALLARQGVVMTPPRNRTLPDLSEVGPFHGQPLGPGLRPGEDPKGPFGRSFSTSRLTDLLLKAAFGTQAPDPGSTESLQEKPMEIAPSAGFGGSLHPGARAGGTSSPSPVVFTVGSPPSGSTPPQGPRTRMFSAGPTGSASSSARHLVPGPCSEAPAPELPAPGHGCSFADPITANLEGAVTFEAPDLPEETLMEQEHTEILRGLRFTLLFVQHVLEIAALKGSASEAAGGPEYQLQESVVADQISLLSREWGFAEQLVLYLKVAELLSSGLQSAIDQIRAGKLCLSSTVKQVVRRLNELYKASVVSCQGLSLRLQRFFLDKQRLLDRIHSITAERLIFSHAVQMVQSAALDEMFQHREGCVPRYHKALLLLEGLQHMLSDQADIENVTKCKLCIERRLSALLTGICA
smiles,measurement,setting,value
"Cc1ccc(Nc2ncc3c(n2)N(C)C(=O)N(c2cc(C(=O)N[C@H](C(=O)N4CCC[C@H]4C(=O)NC(C)(C)C(=O)N[C@@H](CC(C)C)C(=O)N(C)C)C(C)C)ccc2C)C3)cn1 [7a, (S)-N-(1-(((S)-1-(dimethylamino)-4-methyl-1-oxopentan-2-yl)amino)-2-methyl-1-oxopropan-2-yl)-1-((4-methyl-3-(1-methyl-7-((6-methylpyridin-3-yl)amino)-2-oxo-1,4-dihydropyrimido[4,5-d]pyrimidin-3(2H)-yl)benzoyl)-L-valyl)pyrrolidine-2-carboxamide] (X1-VP[Aib]L-NMe2)",inhibition at 1 µM,CDK18/cyclin Y (PCTK3),4%
same,inhibition at 1 µM,ITK,7%
same,inhibition at 1 µM,LKB1,0%
same,inhibition at 1 µM,RSK3,0%
same,inhibition at 1 µM,CLK2,0%
same,inhibition at 1 µM,DYRK1/DYRK1A,20%
same,inhibition at 1 µM,PKCiota,3%
same,inhibition at 1 µM,ULK2,5%
same,inhibition at 1 µM,c-Src,64%
same,inhibition at 1 µM,CAMK2d,0%
same,inhibition at 1 µM,SGK2,0%
same,inhibition at 1 µM,PYK2,8%
same,inhibition at 1 µM,p38a/MAPK14,15%
same,inhibition at 1 µM,IR,0%
same,inhibition at 1 µM,FES/FPS,18%
same,inhibition at 1 µM,Lck,94%
same,inhibition at 1 µM,STK38L/NDR2,4%
same,inhibition at 1 µM,AXL,0%
same,inhibition at 1 µM,SIK1,10%
same,inhibition at 1 µM,TAOK1,0%
same,inhibition at 1 µM,ULK1,0%
same,inhibition at 1 µM,HIPK3,0%
same,inhibition at 1 µM,c-MET,14%
same,inhibition at 1 µM,PDK1/PDPK1,1%
same,inhibition at 1 µM,WNK1,0%
same,inhibition at 1 µM,TLK1,0%
same,inhibition at 1 µM,SYK,0%
same,inhibition at 1 µM,MLK4,7%
same,inhibition at 1 µM,TRKA,0%
same,inhibition at 1 µM,p38b/MAPK11,13%
same,inhibition at 1 µM,NEK4,0%
same,inhibition at 1 µM,CTK/MATK,10%
same,inhibition at 1 µM,PHKg1,7%
same,inhibition at 1 µM,HIPK2,0%
same,inhibition at 1 µM,EPHA1,3%
same,inhibition at 1 µM,PLK1,0%
same,inhibition at 1 µM,CDK17/cyclin Y (PCTK2),7%
same,inhibition at 1 µM,DMPK,0%
same,inhibition at 1 µM,MNK1,8%
same,inhibition at 1 µM,TTBK1,0%
same,inhibition at 1 µM,STK22D/TSSK1,6%
same,inhibition at 1 µM,IKKe/IKBKE,3%
same,inhibition at 1 µM,HPK1/MAP4K1,0%
